Laboratory results as given in article PMC13195669, “GPR3 Ligands Discovered through Combined Virtual and Conformational Biosensor-Based Screening” (Journal of the American Chemical Society, 2026).

Target: T1, GPR3 (Homo sapiens, UniProt P46089)
T1 construct: host or cells: HEK293A, transient
Test: FRET/BRET cAMP biosensor in HEK293A cells cotransfected with GPR3
Type: cell-based
Settings: for GPR3-dependent change in cAMP: cAMP biosensor, pcDNA vs GPR3 transfected HEK293A
Excerpt: With the first GPR3 ligands identified by using a conformational readout in our hands, we next wanted to understand whether these compounds could have been detected in a cAMP-based assay, which has been used extensively in the past to screen for GPR3 ligands. We therefore tested rac-VH1/52, VH2/93 and VH3/115 in cells expressing a cAMP biosensor.
3 Effect of rac-VH1/52, VH2/93 and VH3/115 on GPR3-dependent cAMP production. (a–c) Vehicle-corrected BRET changes induced by rac-VH1/52 (a), VH2/93 (b) or VH3/115 (c) in HEK293A cells transiently transfected with a cAMP BRET sensor along with pcDNA or GPR3. […] Statistical significance was tested using Two-Way ANOVA followed by Sidak multiple comparison (*: […]; **: p < 0.01). […]
Plasmids and molecular cloning
The H187-EPAC-FRET sensor7 was kindly provided by K. Jalink (The Netherlands Cancer Institute, Amsterdam, The Nether-lands). The BRET-based cAMP sensor CAMYEL8 was kindly provided by Laura Humphrys (University of Regensburg, Regens-burg, Germany). Plasmids encoding the conformational biosensors α2AAR- and β2AR-HaloTag/Nluc9 and the Gs heterotrimer dissociation sensor10 were previously described. The expression plasmid encoding N-terminally HA-tagged GPR3 (cat. no.
#GPR003TN00) on a pcDNA3.1+ vector was obtained from the cDNA resource center (cdna.org). The Nluc and HaloTag in-serts were amplified with overhanging restriction sites from β2AAR- HaloTag/Nluc and ligated to the full-length C-terminus or inserted into icl3 of GPR3, respectively, to obtain the conformational biosensor GPR3-HaloTag/Nluc. Point mutants of GPR3-HaloTag/Nluc were generated using the GeneArt Site-directed Mutagenesis System (Thermo Fisher Scientific). All con-structs were verified by sequencing (Eurofins genomics).
Poly-D-lysine, polyethylenimin hydrochloride (linear; average Mn 20 000; PEI) , […], LPA , forskolin, NECA and bovine serum albumin (BSA) were obtained from Sigma Aldrich (Merck KGaA). Dulbecco's Modified Eagle's Medium (DMEM), Dul-becco's Phosphate -Buffered Saline (DPBS) and G -418 (Geneticin) were from Gibco. Diphenyleneiodonium chloride (DPI) and AF64394 were purchased from Tocris (Bio -Techne). The TMB (3, 3', 5, 5' tetramethyl benzidine) substrate reagent set was from BioLegend. The Nluc substrate furimazine and the red fluorescen t HaloTag dye, HaloTag® NanoBRET® 618 Ligand, were obtained in a single kit from Promega (cat. no. N1662). D-luciferin-sodium and the S1PR1 agonist III were from Med-ChemExpress. The Rluc substrate coelenterazine 400a was from NanoLight Technology (cat. no. 340 -10). White -wall, white - bottomed 96 -well, black -wall, black bottomed and transparent 96 -well microtiter plates were from Brand.
HEK293A cells were used for transient transfection and grown in Dulbecco’s modified Eagle’s medium (DMEM) supplemented with 2 mM glutamine, 10 % fetal calf serum, streptomycin (0.1 mg/mL), and penicillin (100 U/mL) at 37 °C with 5 % CO2. […]
Transient transfection and plating
Resuspended cells (300,000 cells/mL) were transfected in suspension with a total of 1 μg DNA/mL suspension using PEI (1 mg/ml stock solution; 3 μL PEI solution per μg DNA). For cAMP experiments with FRET- or BRET-based sensors, resuspended cells were transfected with 500 ng pcDNA, wildtype GPR3 or GPR3-HaloTag/Nluc constructs along with 500 ng of the FRET-or BRET-based cAMP sensor per mL cell suspension. For cAMP experiments with GloSensor™ 22F, resuspended cells were transfected with 250 ng pcDNA or GPCR along with 500 ng of a 1:1 mix of pcDNA with the GloSensor™ 22F per mL cell sus-pension. Cells mixed with the transfection reagents were seeded onto poly-D-lysine–precoated, 96-well plates and grown for 48 h at 37 °C with 5 % CO2. Stable α2AAR-, β2AR- or GPR3-HaloTag/Nluc expressing cells were seeded 24 h before the experi-ment at a density of 800,000 cells/mL into white 96-well plates. To monitor changes in BRET in with conformational GPCR […]

[1] = 30 μM pretreatment, cells coexpressing GPR3

T1 sequence (P46089 whole entry): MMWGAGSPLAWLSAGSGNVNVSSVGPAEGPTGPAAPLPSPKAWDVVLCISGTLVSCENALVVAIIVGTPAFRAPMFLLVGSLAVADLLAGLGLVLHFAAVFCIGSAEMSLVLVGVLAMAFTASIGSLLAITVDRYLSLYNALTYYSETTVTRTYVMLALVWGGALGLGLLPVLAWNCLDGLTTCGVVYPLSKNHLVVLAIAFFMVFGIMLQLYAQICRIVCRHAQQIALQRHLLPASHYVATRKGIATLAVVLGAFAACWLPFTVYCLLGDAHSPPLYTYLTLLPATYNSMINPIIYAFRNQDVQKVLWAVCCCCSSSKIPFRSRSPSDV

| SMILES | GPR3-dependent change in cAMP | effect of pretreatment on AF64394 response in cAMP assay [1] | effect of pretreatment on DPI-induced cAMP generation [1] |
| --- | --- | --- | --- |
| N=c1n(Cc2ccccc2)c2ccccc2n1CC(O)COc1ccc(Cl)cc1 (stereo not shown) [compound 52] | induced GPR3-dependent changes in cAMP concentrations |  |  |
| N=c1n(Cc2ccccc2)c2ccccc2n1CC1CC1 [compound 33] |  | no effect on the effect of AF64394 | inhibited DPI-induced cAMP generation |
| Cc1ccc(NC(=O)CN2CCN(C(=O)CCc3ccc(Cl)cc3)CC2)cc1 [compound 115] | modulates the conformation of GPR3 but not GPR3-dependent cAMP production |  |  |
